IC50 data for 34 compounds are collected here from patent US9187472B2 (AbbVie Inc., priority 2012, dated 2015).

pIC50: −log10 of the molar value.

A word on the pIC50: it is the IC50 on a negative log10 scale, so that one unit is a factor of ten. Read a low pIC50 as a high IC50.

For the assay, the system named is PC3 cells. Briefly: NAMPT Cell Proliferation Assay. The format is cell-based. The conditions noted are these: Homo sapiens, PC-3, 120 h, 5 days incubation, cell viability by Cell Titer Glo. As to the method: NAMPT Cell Proliferation Assay
PC3 cells were seeded in 96-well black plates (Corning #3904) at 500 cells/well in 90 μl of RPMI media containing 10% heat-inactivated FBS and incubated overnight at 37° C. and 5% CO2 to allow cells to attach to wells. The following day, test compounds were serially diluted in neat DMSO to 1000× final concentrations prior to dilution with RPMI media to 10× and 1% DMSO. Ten μL of the 10× compounds were then transferred to wells containing cells to produce a dose response of 10-fold dilutions from 10 μM to 1×10^−5 μM. Cells were incubated for 5 days at 37° C. and 5% CO2, then cell viability was measured using Cell Titer Glo reagent (Promega #G7571). Percent inhibition values were calculated and fitted to a sigmoidal dose response curves using Assay Explorer software to determine IC50s.
Background: Cellular ATP, detected with luciferase, serves as a proxy for viable cell number.
In turn, `O=C(NCc1ccn2ccnc2c1)c1ccc(NC(=O)C(F)(F)c2ccccc2)cc1` [Example 895, 4-{[difluoro(phenyl)acetyl]amino}-N-(imidazo[1,2-a]pyridin-7-ylmethyl)benzamide] had a pIC50 of 6.14.

In the case of `CC(C)(C(=O)Nc1ccc(C(=O)NCc2ccn3ccnc3c2)cc1)c1ccccc1` [Example 896, N-(imidazo[1,2-a]pyridin-7-ylmethyl)-4-[(2-methyl-2-phenylpropanoyl)amino]benzamide], the pIC50 is 5.80. As for `O=C(NCc1cn2ccnc2cn1)c1ccc(S(=O)(=O)c2ccccc2)cc1` [Example 897, N-(imidazo[1,2-a]pyrazin-6-ylmethyl)-4-(phenylsulfonyl)benzamide], the pIC50 is 6.15. Against the preceding compound, the pIC50 is 0.35 log units higher.

Turning to `O=C(NCc1ccc2nccn2c1)c1ccc(S(=O)(=O)c2ccccc2)cc1` [Example 898, N-(imidazo[1,2-a]pyridin-6-ylmethyl)-4-(phenylsulfonyl)benzamide], the pIC50 was 6.65. For `CC(C)Cn1nccc1-c1ccc(C(=O)NCc2ccn3ccnc3c2)s1` [Example 899, N-(imidazo[1,2-a]pyridin-7-ylmethyl)-5-[1-(2-methylpropyl)-1H-pyrazol-5-yl]thiophene-2-carboxamide] the value was 6.74; for `CC(C)(C)OC(=O)N1CCC(c2ccc(NC(=O)Cc3ccn4ccnc4c3)cc2)CC1` [Example 900, tert-butyl 4-{4-[(imidazo[1,2-a]pyridin-7-ylacetyl)amino]phenyl}piperidine-1-carboxylate], 7.76.

The compound `O=C(CC1CCCC1)Nc1ccc(C(=O)NCc2cn3c(Cl)cnc3cn2)cc1` [Example 901, N-[(3-chloroimidazo[1,2-a]pyrazin-6-yl)methyl]-4-[(cyclopentylacetyl)amino]benzamide] showed a pIC50 of 6.06. As for `O=C(Cc1ccn2ccnc2c1)Nc1ccc(C2CCN(C(=O)c3ccc(F)cc3F)CC2)cc1` [Example 902, N-{4-[1-(2,4-difluorobenzoyl)piperidin-4-yl]phenyl}-2-(imidazo[1,2-a]pyridin-7-yl)acetamide], the pIC50 is 7.97. This pIC50 lies 1.91 log units higher than the previous one.

`CC(C)C(=O)N1CCC(c2ccc(NC(=O)Cc3ccn4ccnc4c3)cc2)CC1` [Example 903, 2-(imidazo[1,2-a]pyridin-7-yl)-N-{4-[1-(2-methylpropanoyl)piperidin-4-yl]phenyl}acetamide] had a pIC50 of 7.45.

Compound `CC(C)C(=O)N1CCC(c2ccc(NC(=O)NCc3ccn4c(Cl)cnc4c3)cc2)CC1` [Example 904, 1-[(3-chloroimidazo[1,2-a]pyridin-7-yl)methyl]-3-{4-[1-(2-methylpropanoyl)piperidin-4-yl]phenyl}urea] showed a pIC50 of 6.55. On to `O=C(Cc1ccn2ccnc2c1)Nc1ccc(C2CCN(C(=O)c3ccccc3F)CC2)cc1` [Example 905, N-{4-[1-(2-fluorobenzoyl)piperidin-4-yl]phenyl}-2-(imidazo[1,2-a]pyridin-7-yl)acetamide], for which the pIC50 was 9.00.

With `CC(C)Cc1cc(-c2ccc(C(=O)NCc3ccn4ccnc4c3)s2)n(C)n1` [Example 906, N-(imidazo[1,2-a]pyridin-7-ylmethyl)-5-[1-methyl-3-(2-methylpropyl)-1H-pyrazol-5-yl]thiophene-2-carboxamide], the pIC50 was 8.38. The compound `CC(C)Cc1cc(-c2ccc(C(=O)NCc3ccn4ccnc4c3)s2)n(Cc2ccccc2)n1` [Example 907, 5-[1-benzyl-3-(2-methylpropyl)-1H-pyrazol-5-yl]-N-(imidazo[1,2-a]pyridin-7-ylmethyl)thiophene-2-carboxamide] had a pIC50 of 8.15. Against the preceding compound, the pIC50 is 0.23 log units lower.

In turn, `O=C(CC1CCCC1)Nc1ccc(C(=O)NCc2cn3ccnc3cn2)c(F)c1` [Example 908, 4-[(cyclopentylacetyl)amino]-2-fluoro-N-(imidazo[1,2-a]pyrazin-6-ylmethyl)benzamide] had a pIC50 of 7.95. Compared with the last compound, the pIC50 is 0.20 log units lower. For the compound `O=C(NCc1ccn2ccnc2c1)c1ccc(C(=O)NCc2cc(F)ccc2F)cc1` [Example 909, N-(2,5-difluorobenzyl)-N′-(imidazo[1,2-a]pyridin-7-ylmethyl)benzene-1,4-dicarboxamide], the negative logarithm of the IC50 (pIC50) was 5.14. This pIC50 is 2.81 log units lower than that of the compound before. Regarding `CC(C)C1CCCN1C(=O)c1ccc(C(=O)NCc2ccn3ccnc3c2)cc1` (stereo not shown) [Example 910, N-(imidazo[1,2-a]pyridin-7-ylmethyl)-4-{[2-(propan-2-yl)pyrrolidin-1-yl]carbonyl}benzamide], the negative-log IC50 (pIC50) is < 5.00. For `CC(C)(C)Cc1nnc(-c2ccc(NC(=O)Cc3ccn4ccnc4c3)cc2)o1` [Example 911, N-{4-[5-(2,2-dimethylpropyl)-1,3,4-oxadiazol-2-yl]phenyl}-2-(imidazo[1,2-a]pyridin-7-yl)acetamide] the value was 7.37. Compound `CC(C)(C)OC(=O)N1CCC(c2ccc(NC(=O)NCc3ccn4ccnc4c3)c(F)c2)CC1` [Example 912, tert-butyl 4-(3-fluoro-4-{[(imidazo[1,2-a]pyridin-7-ylmethyl)carbamoyl]amino}phenyl)piperidine-1-carboxylate] showed a negative logarithm of the IC50 (pIC50) of 8.06. In the case of `O=C(NCc1ccn2ccnc2c1)c1ccc(C2CCN(C(=O)c3cccnc3Cl)CC2)cc1` [Example 913, 4-{1-[(2-chloropyridin-3-yl)carbonyl]piperidin-4-yl}-N-(imidazo[1,2-a]pyridin-7-ylmethyl)benzamide], the pIC50 is 7.84.

The compound `CC(C)=CC(=O)N1CCC(c2ccc(C(=O)NCc3ccn4ccnc4c3)cc2)CC1` [Example 914, N-(imidazo[1,2-a]pyridin-7-ylmethyl)-4-[1-(3-methylbut-2-enoyl)piperidin-4-yl]benzamide] had a pIC50 of 7.11.

The compound `COc1ccc(C(=O)N2CCC(c3ccc(C(=O)NCc4ccn5ccnc5c4)cc3)CC2)cc1F` [Example 915, 4-[1-(3-fluoro-4-methoxybenzoyl)piperidin-4-yl]-N-(imidazo[1,2-a]pyridin-7-ylmethyl)benzamide] showed a pIC50 of 6.76. `CC1=C(C(=O)N2CCC(c3ccc(C(=O)NCc4ccn5ccnc5c4)cc3)CC2)CCC1` [Example 916, N-(imidazo[1,2-a]pyridin-7-ylmethyl)-4-{1-[(2-methylcyclopent-1-en-1-yl)carbonyl]piperidin-4-yl}benzamide] gave a pIC50 of 8.17.

In turn, `CCC(CC)C(=O)N1CCC(c2ccc(C(=O)NCc3ccn4ccnc4c3)cc2)CC1` [Example 917, 4-[1-(2-ethylbutanoyl)piperidin-4-yl]-N-(imidazo[1,2-a]pyridin-7-ylmethyl)benzamide] had a pIC50 of 8.17. `O=C(NCc1ccn2ccnc2c1)c1ccc(C2CCN(C(=O)COc3ccc(F)cc3)CC2)cc1` [Example 918, 4-{1-[(4-fluorophenoxy)acetyl]piperidin-4-yl}-N-(imidazo[1,2-a]pyridin-7-ylmethyl)benzamide] gave a pIC50 of 6.63. `COc1cc(OC)cc(C(=O)N2CCC(c3ccc(C(=O)NCc4ccn5ccnc5c4)cc3)CC2)c1` [Example 919, 4-[1-(3,5-dimethoxybenzoyl)piperidin-4-yl]-N-(imidazo[1,2-a]pyridin-7-ylmethyl)benzamide] showed a pIC50 of 7.00.

In turn, `O=C(NCc1ccn2ccnc2c1)c1ccc(C2CCN(C(=O)C3CC=CCC3)CC2)cc1` (stereo not shown) [Example 920, 4-[1-(cyclohex-3-en-1-ylcarbonyl)piperidin-4-yl]-N-(imidazo[1,2-a]pyridin-7-ylmethyl)benzamide] had a pIC50 of 8.10. For the compound `COc1ccccc1CC(=O)N1CCC(c2ccc(C(=O)NCc3ccn4ccnc4c3)cc2)CC1` [Example 921, N-(imidazo[1,2-a]pyridin-7-ylmethyl)-4-{1-[(2-methoxyphenyl)acetyl]piperidin-4-yl}benzamide], the pIC50 was 6.80. The compound `O=C(NCc1ccn2ccnc2c1)c1ccc(C2CCN(C(=O)C(CO)c3ccccc3)CC2)cc1` (stereo not shown) [Example 922, 4-[1-(3-hydroxy-2-phenylpropanoyl)piperidin-4-yl]-N-(imidazo[1,2-a]pyridin-7-ylmethyl)benzamide] had a pIC50 of 8.00. In the case of `Cc1cccc(C(=O)N2CCC(c3ccc(C(=O)NCc4ccn5ccnc5c4)cc3)CC2)c1` [Example 923, N-(imidazo[1,2-a]pyridin-7-ylmethyl)-4-[1-(3-methylbenzoyl)piperidin-4-yl]benzamide], the pIC50 is 8.34.

On to `CC(=O)c1ccccc1C(=O)N1CCC(c2ccc(C(=O)NCc3ccn4ccnc4c3)cc2)CC1` [Example 924, 4-[1-(2-acetylbenzoyl)piperidin-4-yl]-N-(imidazo[1,2-a]pyridin-7-ylmethyl)benzamide], for which the pIC50 is 7.74. Regarding `COCc1ccccc1C(=O)N1CCC(c2ccc(C(=O)NCc3ccn4ccnc4c3)cc2)CC1` [Example 925, N-(imidazo[1,2-a]pyridin-7-ylmethyl)-4-{1-[2-(methoxymethyl)benzoyl]piperidin-4-yl}benzamide], the pIC50 was 8.69. Regarding `CC(C(=O)N1CCC(c2ccc(C(=O)NCc3ccn4ccnc4c3)cc2)CC1)c1ccccc1` (stereo not shown) [Example 926, N-(imidazo[1,2-a]pyridin-7-ylmethyl)-4-[1-(2-phenylpropanoyl)piperidin-4-yl]benzamide], the pIC50 is 8.01.

On to `COc1cccc(OC)c1C(=O)N1CCC(c2ccc(C(=O)NCc3ccn4ccnc4c3)cc2)CC1` [Example 927, 4-[1-(2,6-dimethoxybenzoyl)piperidin-4-yl]-N-(imidazo[1,2-a]pyridin-7-ylmethyl)benzamide], for which the pIC50 was 8.15. The pIC50 values of the last two compounds are within 0.2 log units of each other. The value for `CCN(CC)CCC(=O)N1CCC(c2ccc(C(=O)NCc3ccn4ccnc4c3)cc2)CC1` [Example 928, 4-[1-(N,N-diethyl-beta-alanyl)piperidin-4-yl]-N-(imidazo[1,2-a]pyridin-7-ylmethyl)benzamide] was 6.97.
